pEC50: −log10 of the molar value.
Target: human orexin type 2 receptor (hOX2R) (Homo sapiens (Human), UniProt O43614)
Test: Measurement of orexin type 2 receptor agonist activity (Experimental Example 2-1, FLIPR intracellular Ca2+)
Format: cell-based
From the text: To obtain a cell clone stably expressing human orexin type 2 receptor, human orexin type 2 receptor cDNA was inserted into pcDNA3.1(+) plasmid vector (Invitrogen), and a plasmid DNA for expression of human orexin type 2 receptor (pcDNA3.1(+)/hOX2R) was cloned. The plasmid DNA was introduced into CHO-dhfr cell by an electroporation method, and human orexin type 2 receptor expressing clone cells were obtained by limiting dilution method by using G418 drug resistance as a selection marker.
Chinese hamster ovary (CHO) dhfr-cells forcibly expressing human orexin type 2 receptor (hOX2R) were seeded in each well of Black clear bottom plate (384 wells) (Becton, Dickinson and Company) by 10,000 cells, and cultured for 16 hr in an MEM-alpha (Nikken-Bio Co., Ltd.) medium containing 100 U/ml penicillin, 100 μg/ml streptomycin, […] G418 (all above Invitrogen), and 10% fetal calf serum (Thermo), under the conditions of 37° C., 5% CO2. […] A test compound was dissolved in dimethyl sulfoxide to 10 mM, and then diluted with assay buffer 2 (20 mM HEPES, Hanks' balanced salt solution (Invitrogen), 0.1% bovine serum albumin). For the reaction, a test compound solution (10 μL) was added using Fluorescent Imaging Plate Reader TETRA (FLIPR TETRA; manufactured by Molecular Devices), a fluorescence value (excitation wavelength 488 nm, measurement wavelength 570 nm) of each well was measured every one second for 1 min, and the agonist activity was determined using the area of the fluorescence value as an indicator of intracellular Ca^2+ concentration.

[1] = CHO dhfr- cells expressing hOX2R, FLIPR TETRA Ca2+ fluorescence (Exp. Ex. 2-1)

Chain of human orexin type 2 receptor (hOX2R) (O43614 whole entry): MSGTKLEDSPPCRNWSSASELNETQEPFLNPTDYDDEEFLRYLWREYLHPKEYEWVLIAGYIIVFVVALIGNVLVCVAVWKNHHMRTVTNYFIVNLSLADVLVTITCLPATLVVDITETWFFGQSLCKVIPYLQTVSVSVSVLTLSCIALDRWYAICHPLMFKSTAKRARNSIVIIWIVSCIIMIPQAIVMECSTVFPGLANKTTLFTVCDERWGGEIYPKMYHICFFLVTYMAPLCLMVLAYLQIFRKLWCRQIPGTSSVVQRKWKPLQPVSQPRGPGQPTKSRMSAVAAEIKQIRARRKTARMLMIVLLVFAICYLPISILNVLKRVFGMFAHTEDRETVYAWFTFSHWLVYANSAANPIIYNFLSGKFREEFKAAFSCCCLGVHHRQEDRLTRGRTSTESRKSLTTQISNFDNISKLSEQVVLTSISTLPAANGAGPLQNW

| Compound | pEC50 [1] | Emax (%) [1] [%] | Emax at 30 µM (value at 30 uM concentration, orexin B as full agonist = 100%) [%] |
| --- | --- | --- | --- |
| COc1cccc([C@H]2CC[C@@H](OC[C@H]3[C@@H](NS(C)(=O)=O)CCCN3C(=O)C3CC3)CC2)c1 [Example 304, N-((2R,3S)-1-(cyclopropylcarbonyl)-2-(((cis-4-(3-methoxyphenyl)cyclohexyl)oxy)-methyl)piperidin-3-yl) methanesulfonamide] | 7.64 |  |  |
| cis-N-ethyl-3- ((methylsulfonyl)amino)-2- (((cis-2-phenyl-1,3-dioxan- 5-yl)oxy)methyl) piperidine-1-carboxamide [Example 140] | 6.41 | 92 |  |
| CCOC(=O)N1CCC[C@H](NS(C)(=O)=O)[C@@H]1CO[C@H]1CC[C@@H](c2ccccc2)CC1 [Example 303, ethyl (2R,3S)-3-((methylsulfonyl)amino)-2-(((cis-4-phenylcyclohexyl)oxy)methyl)-piperidine-1-carboxylate] | 7.82 |  |  |
| COc1ccccc1[C@H]1CC[C@@H](OC[C@H]2[C@@H](NS(C)(=O)=O)CCCN2C(=O)C2CC2)CC1 [Example 28, N-((2R,3S)-1-(cyclopropylcarbonyl)-2-(((cis-4-(2-methoxyphenyl)cyclohexyl)oxy)methyl)piperidin-3-yl)methanesulfonamide] |  |  | 98 |

From patent US11292766B2, “Substituted piperidine compound and use thereof” (Takeda Pharmaceutical Company Limited, priority 2016, dated 2022)
